From patent publication US20240018133A1, “MODULATORS OF THE INTEGRATED STRESS PATHWAY” (Calico Life Sciences LLC, priority 2019, published 2024) come the findings set out here.

The test system of this assay is ATF4 luciferase reporter (human full-length ATF4 5'-UTR fused to firefly luciferase) in HEK293T cells. Briefly: ATF4-Luc assay (in vitro model of VWMD): HEK293T cells carrying ATF4 luciferase reporter, tunicamycin-treated. The assay is classed as cell-based. The settings on record: Homo sapiens, HEK-293T, 1 μg/mL tunicamycin, 7 hours, One Glo luminescence. As for the experimental part:
In order to test exemplary compounds of the invention in a cellular context, a stable VWMD cell line was first constructed. The ATF4 reporter was prepared by fusing the human full-length ATF4 5′-UTR (NCBI Accession No. BC022088.2) in front of the firefly luciferase (FLuc) coding sequence lacking the initiator methionine as described in Sidrauski et al (eLife 2013). The construct was used to produce recombinant retroviruses using standard methods and the resulting viral supernatant was used to transduce HEK293T cells, which were then subsequently selected with puromycin to generate a stable cell line.
HEK293T cells carrying the ATF4 luciferase reporter were plated on polylysine coated 384-well plates (Greiner Bio-one) at 30,000 cells per well. Cells were treated the next day with 1 μg/mL tunicamycin and 200 nM of a compound of Formula (I) for 7 hours. Luminescence was measured using One Glo (Promega) as specified by the manufacturer. Cells were maintained in DMEM with L-glutamine supplemented with 10% heat-inactivated FBS (Gibco) and Antibiotic-Antimycotic solution (Gibco).
Table 2 below summarizes the EC50 data obtained using the ATF4-Luc assay for exemplary compounds of the invention.
In general terms: In a reporter assay the amount or activity of a reporter protein is the signal.

By EC50 is commonly meant the concentration needed to bring the measured effect to its halfway point.

Molecules are shown by their SMILES.

For the molecule `COC(=O)CN1C[C@@H](C(=O)NC23CC(NC(=O)COc4ccc(Cl)c(F)c4)(C2)C3)Oc2ccc(Cl)cc21` [Compound 211, methyl [(2S)-6-chloro-2-({3-[2-(4-chloro-3-fluorophenoxy)acetamido]bicyclo[1.1.1]pentan-1-yl}carbamoyl)-2,3-dihydro-4H-1,4-benzoxazin-4-yl]acetate], the half-maximal effective concentration (EC50) lay in the range of 0.01 to 0.05 µM.

Turning to `O=C(NC12CC(NC(=O)C3CC(O)c4cc(Cl)ccc4O3)(C1)C2)c1cnc(C(F)F)cn1` (stereo not shown) [Compound 213, N-{3-[(6-chloro-4-hydroxy-3,4-dihydro-2H-1-benzopyran-2-carbonyl)amino]bicyclo[1.1.1]pentan-1-yl}-5-(difluoromethyl)pyrazine-2-carboxamide], the EC50 fell in the range of 0.01 to 0.05 µM.

Turning to `O=C(NC12CCC(NC(=O)C3CC(=O)c4cc(Cl)ccc4O3)(CC1)[C@@H](O)C2)c1cc(C(F)F)no1` (stereo partly drawn) [Compound 214, N-{(3S)-4-[(6-chloro-4-oxo-3,4-dihydro-2H-1-benzopyran-2-carbonyl)amino]-3-hydroxybicyclo[2.2.2]octan-1-yl}-3-(difluoromethyl)-1,2-oxazole-5-carboxamide], the half-maximal effective concentration (EC50) was 0.25 to 0.5 µM.

For the molecule `O=C(NC12CC(NC(=O)C3CC(=O)c4cc(Cl)ccc4O3)(C1)C2)c1cnc(C(F)F)cn1` (stereo not shown) [Compound 217, N-{3-[(6-chloro-4-oxo-3,4-dihydro-2H-1-benzopyran-2-carbonyl)amino]bicyclo[1.1.1]pentan-1-yl}-5-(difluoromethyl)pyrazine-2-carboxamide], the EC50 is 0.05 to 0.25 µM.

For the molecule `CS(=O)(=O)NC1CC(C(=O)NC23CC(NC(=O)COc4ccc(Cl)c(F)c4)(C2)C3)Oc2ccc(Cl)cc21` (stereo not shown) [Compound 219, 6-chloro-N-{3-[2-(4-chloro-3-fluorophenoxy)acetamido]bicyclo[1.1.1]pentan-1-yl}-4-[(methanesulfonyl)amino]-3,4-dihydro-2H-1-benzopyran-2-carboxamide], the EC50 was less than 0.01 µM.

Consider `CC(=O)NC1CC(C(=O)NC23CC(NC(=O)COc4ccc(Cl)c(F)c4)(C2)C3)Oc2ccc(Cl)cc21` (stereo not shown) [Compound 220, 4-acetamido-6-chloro-N-{3-[2-(4-chloro-3-fluorophenoxy)acetamido]bicyclo[1.1.1]pentan-1-yl}-3,4-dihydro-2H-1-benzopyran-2-carboxamide], for which the EC50 fell in the range of 0.01 to 0.05 µM.

In the case of `COc1cc2oc(C(=O)NC34CC(NC(=O)COc5ccc(Cl)c(F)c5)(C3)C4)cc(=O)c2cc1OC` [Compound 221, N-{3-[2-(4-chloro-3-fluorophenoxy)acetamido]bicyclo[1.1.1]pentan-1-yl}-6,7-dimethoxy-4-oxo-4H-1-benzopyran-2-carboxamide], the concentration giving a half-maximal response (EC50) is more than 2 µM.

`O=C(COc1ccc(Cl)c(F)c1)NC12CC(NC(=O)C3CC(O)c4ccc(F)cc4O3)(C1)C2` (stereo not shown) [Compound 222, N-{3-[2-(4-chloro-3-fluorophenoxy)acetamido]bicyclo[1.1.1]pentan-1-yl}-7-fluoro-4-hydroxy-3,4-dihydro-2H-1-benzopyran-2-carboxamide]: the 50% effective concentration (EC50) was less than 0.01 µM.

On to `O=C(COc1ccc(Cl)c(F)c1)NC12CC(NC(=O)[C@H]3CC(=O)c4cc(Cl)ccc4O3)(C1)C2` [Compound 223, (2R)-6-chloro-N-{3-[2-(4-chloro-3-fluorophenoxy)acetamido]bicyclo[1.1.1]pentan-1-yl}-4-oxo-3,4-dihydro-2H-1-benzopyran-2-carboxamide], for which the concentration giving a half-maximal response (EC50) is less than 0.01 µM.

Take `O=C(COc1ccc(Cl)c(F)c1)NC12CC(NC(=O)[C@@H]3CC(=O)c4cc(Cl)ccc4O3)(C1)C2` [Compound 224, (2S)-6-chloro-N-{3-[2-(4-chloro-3-fluorophenoxy)acetamido]bicyclo[1.1.1]pentan-1-yl}-4-oxo-3,4-dihydro-2H-1-benzopyran-2-carboxamide]: the EC50 was less than 0.01 µM.

With `O=C(COc1ccc(C(F)(F)F)nc1)NC12CC(NC(=O)[C@H]3CC(=O)c4cc(Cl)ccc4O3)(C1)C2` [Compound 225, (2R)-6-chloro-4-oxo-N-[3-(2-{[6-(trifluoromethyl)pyridin-3-yl]oxy}acetamido)bicyclo[1.1.1]pentan-1-yl]-3,4-dihydro-2H-1-benzopyran-2-carboxamide], the concentration giving a half-maximal response (EC50) was 0.01 to 0.05 µM.

On to `O=C(COc1ccc(C(F)(F)F)nc1)NC12CC(NC(=O)[C@H]3C[C@@H](O)c4cc(Cl)ccc4O3)(C1)C2` [Compound 226, (2R,4R)-6-chloro-4-hydroxy-N-[3-(2-{[6-(trifluoromethyl)pyridin-3-yl]oxy}acetamido)bicyclo[1.1.1]pentan-1-yl]-3,4-dihydro-2H-1-benzopyran-2-carboxamide], for which the EC50 was less than 0.01 µM.

For `COc1ncc(OCC(=O)NC23CC(NC(=O)[C@H]4C[C@@H](O)c5cc(Cl)ccc5O4)(C2)C3)cn1` [Compound 227, (2R,4R)-6-chloro-4-hydroxy-N-(3-{2-[(2-methoxypyrimidin-5-yl)oxy]acetamido}bicyclo[1.1.1]pentan-1-yl)-3,4-dihydro-2H-1-benzopyran-2-carboxamide], the EC50 fell in the range of 0.05 to 0.25 µM.

`O=C(COc1cnc(C(F)(F)F)nc1)NC12CC(NC(=O)[C@H]3C[C@@H](O)c4cc(Cl)ccc4O3)(C1)C2` [Compound 228, (2R,4R)-6-chloro-4-hydroxy-N-[3-(2-{[2-(trifluoromethyl)pyrimidin-5-yl]oxy}acetamido)bicyclo[1.1.1]pentan-1-yl]-3,4-dihydro-2H-1-benzopyran-2-carboxamide]: the concentration giving a half-maximal response (EC50) was 0.01 to 0.05 µM.

As for `O=C(COc1ccc(Cl)c(F)c1)NC12CCC(NC(=O)[C@H]3C[C@@H](O)c4cc(Cl)ccc4O3)(CC1)CC2` [Compound 229, (2R,4R)-6-chloro-N-{4-[2-(4-chloro-3-fluorophenoxy)acetamido]bicyclo[2.2.2]octan-1-yl}-4-hydroxy-3,4-dihydro-2H-1-benzopyran-2-carboxamide], the concentration for a half-maximal effect (EC50) is less than 0.01 µM.

For `O=C(COc1ccc(Cl)c(F)c1)NC12CC(NC(=O)c3cc(=O)c4ccc(C(F)(F)F)cc4o3)(C1)C2` [Compound 230, N-{3-[2-(4-chloro-3-fluorophenoxy)acetamido]bicyclo[1.1.1]pentan-1-yl}-4-oxo-7-(trifluoromethyl)-4H-1-benzopyran-2-carboxamide], the EC50 was less than 0.01 µM.

For `O=C(COc1ccc(Cl)c(F)c1)NC12CC(NC(=O)c3cc(=O)c4cc(Cl)c(F)cc4o3)(C1)C2` [Compound 231, 6-chloro-N-{3-[2-(4-chloro-3-fluorophenoxy)acetamido]bicyclo[1.1.1]pentan-1-yl}-7-fluoro-4-oxo-4H-1-benzopyran-2-carboxamide], the EC50 was less than 0.01 µM.

In the case of `O=C(COc1ccc(Cl)c(F)c1)NC12CC(NC(=O)c3cc(=O)c4cc(F)c(Cl)cc4o3)(C1)C2` [Compound 232, 7-chloro-N-{3-[2-(4-chloro-3-fluorophenoxy)acetamido]bicyclo[1.1.1]pentan-1-yl}-6-fluoro-4-oxo-4H-1-benzopyran-2-carboxamide], the EC50 is less than 0.01 µM.

In the case of `O=C(COc1ccc(Cl)cn1)NC12CC(NC(=O)[C@H]3C[C@@H](O)c4cc(Cl)ccc4O3)(C1)C2` [Compound 233, (2R,4R)-6-chloro-N-(3-{2-[(5-chloropyridin-2-yl)oxy]acetamido}bicyclo[1.1.1]pentan-1-yl)-4-hydroxy-3,4-dihydro-2H-1-benzopyran-2-carboxamide], the EC50 lay within 0.01 to 0.05 µM.

`O=C(COc1ccc(Cl)c(F)c1)NC12CC(NC(=O)c3cc(=O)c4ccc(Cl)cc4o3)(C1)C2` [Compound 235, 7-chloro-N-{3-[2-(4-chloro-3-fluorophenoxy)acetamido]bicyclo[1.1.1]pentan-1-yl}-4-oxo-4H-1-benzopyran-2-carboxamide]: the EC50 was in the range of 0.01 to 0.05 µM.

As for `Cc1cc2oc(C(=O)NC34CC(NC(=O)COc5ccc(Cl)c(F)c5)(C3)C4)cc(=O)c2cc1Cl` [Compound 236, 6-chloro-N-{3-[2-(4-chloro-3-fluorophenoxy)acetamido]bicyclo[1.1.1]pentan-1-yl}-7-methyl-4-oxo-4H-1-benzopyran-2-carboxamide], the EC50 was less than 0.01 µM.

Take `CC1(C(=O)NC23CC(NC(=O)COc4ccc(Cl)c(F)c4)(C2)C3)CCc2cc(Cl)ccc2O1` (stereo not shown) [Compound 240, 6-chloro-N-{3-[2-(4-chloro-3-fluorophenoxy)acetamido]bicyclo[1.1.1]pentan-1-yl}-2-methyl-3,4-dihydro-2H-1-benzopyran-2-carboxamide]: the EC50 was 0.01 to 0.05 µM.

Take `Cc1cc2c(cc1F)[C@@H](O)C[C@@H](C(=O)NC13CC(NC(=O)COc4ccc(Cl)c(F)c4)(C1)C3)O2` [Compound 242, (2S,4S)—N-{3-[2-(4-chloro-3-fluorophenoxy)acetamido]bicyclo[1.1.1]pentan-1-yl}-6-fluoro-4-hydroxy-7-methyl-3,4-dihydro-2H-1-benzopyran-2-carboxamide]: the EC50 is less than 0.01 µM.

Consider `O=C(COc1ccc(Cl)c(F)c1)NC12CC(NC(=O)C3CC(O)c4ccc(C(F)(F)F)cc4O3)(C1)C2` (stereo not shown) [Compound 243, N-{3-[2-(4-chloro-3-fluorophenoxy)acetamido]bicyclo[1.1.1]pentan-1-yl}-4-hydroxy-7-(trifluoromethyl)-3,4-dihydro-2H-1-benzopyran-2-carboxamide], for which the EC50 was less than 0.01 µM.

As to `CS(=O)(=O)N[C@H]1C[C@H](C(=O)NC23CC(NC(=O)COc4ccc(Cl)c(F)c4)(C2)C3)Oc2ccc(Cl)cc21` [Compound 244, (2R,4S)-6-chloro-N-{3-[2-(4-chloro-3-fluorophenoxy)acetamido]bicyclo[1.1.1]pentan-1-yl}-4-[(methanesulfonyl)amino]-3,4-dihydro-2H-1-benzopyran-2-carboxamide], the EC50 was 0.01 to 0.05 µM.
